# Source: publication PMC7436013, “Design, Synthesis, and Biological Investigation of Novel Classes of 3-Carene-Derived Potent Inhibitors of TDP1” (Molecules, 2020)
# Entries after “also recorded” stand apart in the source; their conditions may differ.
# Experiments:
# [1] = molecular target: T1, TDP1 (Homo sapiens, UniProt Q9NUW8); test: Real-time detection of TDP1 activity with fluorescent oligonucleotide biosensor; assay type: biochemical; conditions: for IC50: real-time fluorescent oligonucleotide biosensor, 1.5 nM TDP1, 50 nM substrate, read-out: IC50, TDP1 inhibition
# T1 construct: made in house; host or cells: Escherichia coli
# Protocol: The compounds synthesized starting from (+)-3-carene 8 were tested for their TDP1 inhibitory properties by measuring their IC50 values using a real-time fluorescent oligonucleotide biosensor [38].
# A fluorophore quencher-coupled oligonucleotide biosensor was used for TDP1 enzyme activity real-time fluorescence detection. […] Recombinant protein TDP1 was expressed in Escherichia coli (pET 16B plasmid containing TDP1 cDNA was provided by Dr. K.W. Caldecott, University of Sussex, United Kingdom) and isolated as described by Lebedeva et al.. The reaction mixture contained TDP1 reaction buffer (50 mM Tris-HCl, 50 mM NaCl, 7 mM β-mercaptoethanol), 50 nM oligonucleotide substrate, varied concentrations of the tested compounds, and 1.5 nM purified TDP1 in a final volume of 200 μL.
# The TDP1 reaction mixture was incubated at rt in a POLARstar OPTIMA fluorimeter (BMG LABTECH, GmbH). Fluorescence intensity was measured every 1 min (Ex485/Em520 nm). The efficiency of TDP1 inhibition was evaluated by comparing the rate of increase in the fluorescence of the biosensor in the presence of the compound to that of DMSO (1.5%) control wells. IC50 values were determined using an 11-point concentration–response curve. The data were imported into MARS Data Analysis 2.0 program (BMG LABTECH) and the slope during the linear phase was calculated. The IC50 measurements were carried out in at least three independent experiments.
# [2] = test system: Krebs-2 carcinoma cells; test: Colorimetric cytotoxicity test, Krebs-2; assay type: cell-based
# Protocol: The cytotoxicity of the compounds was examined against human cell lines HEK293FT (human embryonic kidney), WT and TDP1-deficient (TDP1-/-), HCT116 (human colon cancer), IMR-32 (human neuroblastoma cell line), HeLa (cervical cancer), and Krebs-2 carcinoma ascites using MTT and EZ4U colorimetric tests or an xCELLigence DP Real-Time Cell Analyzer (ACEA Biosciences, San Diego, CA, USA) for HEK293FT in cells exposed to the compounds. The cells were grown in DMEM/F12 or IMDM (for IMR-32 and Krebs-2) medium (Gibco), with 1x GlutaMAX (Gibco), 50 IU/mL penicillin, 50 μg/mL streptomycin (MP Biomedicals, Irvine, CA, USA) and in the presence of 10% fetal bovine serum (Biolot). The cells (~20,000 cells per well) were incubated for 24 h at 37 °C in 5% CO2, and then treated with the tested compounds (the volume of the added reagents was 1/100 of the total volume of the culture medium, the amount of DMSO was 1% of the final volume as indicated). Control cells were grown in the presence of 1% DMSO where indicated. After 72 h of cell incubation, the relative amount of living cells was determined using a colorimetric test of the amount of formazan converted from 3-(4,5-dimethylthiazol-2-yl)-2,5-diphenyl-2H-tetrazolium bromide (MTT test) or EZ4U Cell Proliferation and Cytotoxicity Assay (Biomedica, Austria), as per the manufacturer’s protocols. […]
# [3] = test system: HEK293FT TDP1−/− cells; test: Colorimetric cytotoxicity test (MTT/EZ4U), HEK293FT TDP1-/-; assay type: cell-based, human; conditions: for effect of TDP1 inhibitor in conjunction with Tpc on cell growth: Tpc 30 nM; for IC50: Homo sapiens, HEK293FT, 72 h, read-out: Tpc IC50, colorimetric test
# Protocol: (§1) We analyzed, using a colorimetric test, the relative amount of viable cells after treating HEK293FT WT and TDP1-deficient (TDP1−/−) cells with increasing concentrations of Tpc for 72 h. […] Next, we studied WT and mutant cells’ live activity after Tpc treatment on the xCELLigence System (ACEA Biosciences, USA) by the impedance-based assay. HEK293FT TDP1−/− cells were more sensitive to Tpc (Figure 2B). After Tpc administration to the cells, an […] of the slope was seen, characterizing the velocity of the cell growth with Tpc as compared to the control both for WT (red columns) and mutant cells (green columns) (Figure S1, Supplementary Materials). […] The sharper decrease of the slope for the mutant cells than for the WT (compare the histogram for the 0 and 0.05 μM Tpc concentration, ~1.5 times for WT cells (red) and ~6 times for TDP1−/−cells (green)) also characterizes the higher sensitivity of the mutant to the TOP1 inhibitor. […] There was a three-fold difference for these IC50 values, which is nearly the same as for the colorimetric assay.
# (§2) The cytotoxicity of the compounds was examined against human cell lines HEK293FT (human embryonic kidney), WT and TDP1-deficient (TDP1-/-), HCT116 (human colon cancer), IMR-32 (human neuroblastoma cell line), HeLa (cervical cancer), and Krebs-2 carcinoma ascites using MTT and EZ4U colorimetric tests or an xCELLigence DP Real-Time Cell Analyzer (ACEA Biosciences, San Diego, CA, USA) for HEK293FT in cells exposed to the compounds. The cells were grown in DMEM/F12 or IMDM (for IMR-32 and Krebs-2) medium (Gibco), with 1x GlutaMAX (Gibco), 50 IU/mL penicillin, 50 μg/mL streptomycin (MP Biomedicals, Irvine, CA, USA) and in the presence of 10% fetal bovine serum (Biolot). The cells (~20,000 cells per well) were incubated for 24 h at 37 °C in 5% CO2, and then treated with the tested compounds (the volume of the added reagents was 1/100 of the total volume of the culture medium, the amount of DMSO was 1% of the final volume as indicated). Control cells were grown in the presence of 1% DMSO where indicated. After 72 h of cell incubation, the relative amount of living cells was determined using a colorimetric test of the amount of formazan converted from 3-(4,5-dimethylthiazol-2-yl)-2,5-diphenyl-2H-tetrazolium bromide (MTT test) or EZ4U Cell Proliferation and Cytotoxicity Assay (Biomedica, Austria), as per the manufacturer’s protocols. The real-time detection of the living cells was done by an xCELLigence DP Real-Time Cell Analyzer (ACEA Biosciences). The measurements were carried out in three parallel experiments.
# [4] = test system: HeLa (cervical carcinoma); test: Colorimetric cytotoxicity test, HeLa; assay type: cell-based, human; conditions: for enhancement of the Tpc cytotoxicity: data not shown
# Protocol: as §2
# [5] = test system: HEK293FT WT cells; test: Colorimetric cytotoxicity test (MTT/EZ4U), HEK293FT WT; assay type: cell-based, human; conditions: for effect of TDP1 inhibitor in conjunction with Tpc on cell growth: Tpc 200 nM; for IC50: Homo sapiens, HEK293FT, 72 h, read-out: Tpc IC50, colorimetric test
# Protocol: as §1, §2
# [6] = test system: IMR-32 (human neuroblastoma cell line); test: Colorimetric cytotoxicity test, IMR-32; assay type: cell-based; conditions: for dose-dependent action of Tpc in the presence of inhibitor: IMR-32, Figure 4C; for dose-dependent action of inhibitor in the presence of Tpc on cell growth: IMR-32, Tpc 8 nM, Figure 4B
# Protocol: as §2
# [7] = test system: HCT116 (human colon cancer); test: Colorimetric cytotoxicity test, HCT116; assay type: cell-based; conditions: for intrinsic cytotoxicity: HCT116; for dose-dependent action of inhibitor in the presence of Tpc on cell growth: HCT, Tpc 900 nM, Figure 4B
# Protocol: as §2
# [8] = test system: HEK293FT TDP1−/− cells; test: Impedance-based real-time assay (xCELLigence), HEK293FT TDP1-/-; assay type: cell-based, human
# Protocol: as §1, with “colorimetric assay. […]” for “colorimetric assay.”
# [9] = test system: HEK293FT WT cells; test: Impedance-based real-time assay (xCELLigence), HEK293FT WT; assay type: cell-based, human
# Protocol: as §1, with “colorimetric assay. […]” for “colorimetric assay.”
# [10] = test system: TDP1; design: method as in PMID 31619021, PMID 30396105, PMID 30142660, PMID 29562592, PMID 27658793; conditions: Figure 1; ref [10]-[13],[16]-[18],[20],[22]; read-out: IC50 of known TDP1 inhibitors; cited from earlier work
# [11] = test system: lung adenocarcinoma cells A549; design: method as in PMID 30523770, doi:10.3390/app9132767; conditions: ref [18],[20]; cited from earlier work
# [12] = Homo sapiens, in H2O, read-out: Tpc IC50, impedance-based assay
# T1 sequence (Q9NUW8 whole entry): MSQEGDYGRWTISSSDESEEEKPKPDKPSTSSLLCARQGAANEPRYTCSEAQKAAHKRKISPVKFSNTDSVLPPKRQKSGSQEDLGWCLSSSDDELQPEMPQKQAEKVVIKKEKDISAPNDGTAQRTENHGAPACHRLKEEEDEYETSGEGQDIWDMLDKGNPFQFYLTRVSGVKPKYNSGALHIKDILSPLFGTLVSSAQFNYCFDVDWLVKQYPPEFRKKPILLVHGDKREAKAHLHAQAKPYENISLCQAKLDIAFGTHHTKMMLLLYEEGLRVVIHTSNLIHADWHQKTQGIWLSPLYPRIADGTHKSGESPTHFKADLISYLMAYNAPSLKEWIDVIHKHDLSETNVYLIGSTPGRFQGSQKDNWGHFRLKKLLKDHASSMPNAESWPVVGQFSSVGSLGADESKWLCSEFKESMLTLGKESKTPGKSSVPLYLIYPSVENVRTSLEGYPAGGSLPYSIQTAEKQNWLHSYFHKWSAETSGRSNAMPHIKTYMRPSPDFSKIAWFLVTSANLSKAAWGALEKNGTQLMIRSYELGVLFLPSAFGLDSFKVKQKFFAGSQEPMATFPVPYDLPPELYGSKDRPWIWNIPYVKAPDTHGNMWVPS
compound,measurement,setting,value
C/C=C/C1OC(C)(C)[C@@H]2CCC(C)=C[C@H]12 (some centres unmarked) [11c],activity against TDP1 (in words),[1],do not exhibit activity
same,IC50,[1],> 20 µM
"CC1=C[C@@H]2[C@@H](c3cccs3)OC(C)(C)[C@@H]2CC1 [11d, (1S,3aR,7aS)-3,3,6-trimethyl-1-(thiophen-2-yl)-1,3,3a,4,5,7a-hexahydroisobenzofuran]",IC50,[1],4.85 ± 1.06 µM
"CC1=C[C@@H]2[C@@H](c3sccc3C)OC(C)(C)[C@@H]2CC1 [11e, (1S,3aR,7aS)-3,3,6-trimethyl-1-(3-methylthiophen-2-yl)-1,3,3a,4,5,7a-hexahydroisobenzofuran]",IC50,[1],3.6 ± 1.7 µM
"CC1=C[C@@H]2[C@@H](c3ccc(C)s3)OC(C)(C)[C@@H]2CC1 [11f, (1S,3aR,7aS)-3,3,6-trimethyl-1-(5-methylthiophen-2-yl)-1,3,3a,4,5,7a-hexahydroisobenzofuran]",IC50,[1],4.7 ± 2 µM
"CC1=C[C@@H]2[C@@H](c3ccc(Br)s3)OC(C)(C)[C@@H]2CC1 [11h, (1S,3aR,7aS)-3,3,6-trimethyl-1-(5-bromothiophen-2-yl)-1,3,3a,4,5,7a-hexahydroisobenzofuran]",intrinsic cytotoxicity,[2],low
same,IC50,[1],0.75 ± 0.07 µM
same,effect of TDP1 inhibitor in conjunction with Tpc on cell growth,[3],not found; also recorded: no effect
same,intrinsic cytotoxicity,[4],low
same,enhancement of the Tpc cytotoxicity,[4],no enhancement
same,effect of TDP1 inhibitor in conjunction with Tpc on cell growth,[5],cell growth suppression; also recorded: synergistic effect; also recorded: Suppressed cell growth
same,intrinsic cytotoxicity,[6]; IMR-32,low
same,dose-dependent action of Tpc in the presence of inhibitor,[6],synergistic action
same,dose-dependent action of inhibitor in the presence of Tpc on cell growth,[6],suppressed cell growth
same,intrinsic cytotoxicity,[7],low
same,dose-dependent action of Tpc in the presence of inhibitor,"[7]; HCT116, Figure 4C",enhanced Tpc’s potency
same,dose-dependent action of inhibitor in the presence of Tpc on cell growth,[7],no effect
"CC1=C[C@@H]2[C@@H](c3ccsc3)OC(C)(C)[C@@H]2CC1 [11k, (1S(R),3aR,7aS)-3,3,6-trimethyl-1-(thiophen-3-yl)-1,3,3a,4,5,7a-hexahydroisobenzofuran]",IC50,[1],1.6 ± 0.56 µM
COc1cc(C2OC(C)(C)C3CC=C(C)C2C3)ccc1O (centres unmarked) [12a],activity against TDP1 (in words),[1],do not exhibit activity
same,IC50,[1],> 20 µM
"CC1=CC[C@@H]2C[C@H]1[C@H](c1cccs1)OC2(C)C [12d, (1R,4R,5R)-2,2,6-trimethyl-4-(thiophen-2-yl)-3-oxabicyclo[3.3.1]non-6-ene]",IC50,[1],3.35 ± 1.06 µM
"CC1=CC[C@@H]2C[C@H]1[C@H](c1sccc1C)OC2(C)C [12e, (1R,4R,5R)-2,2,6-trimethyl-4-(3-methylthiophen-2-yl)-3-oxabicyclo[3.3.1]non-6-ene]",IC50,[1],2.25 ± 0.63 µM
"CC1=CC[C@@H]2C[C@H]1[C@H](c1cc(Br)cs1)OC2(C)C [12g, (1R,4R,5R)-2,2,6-trimethyl-4-(4-bromothiophen-2-yl)-3-oxabicyclo[3.3.1]non-6-ene]",IC50,[1],0.65 ± 0.22 µM
"CC1=CC[C@@H]2C[C@H]1[C@H](c1ccc(Br)s1)OC2(C)C [12h, (1R,4R,5R)-2,2,6-trimethyl-4-(5-bromothiophen-2-yl)-3-oxabicyclo[3.3.1]non-6-ene]",IC50,[1],1.75 ± 0.78 µM
"CC1=CC[C@@H]2C[C@H]1[C@H](c1ccc([N+](=O)[O-])o1)OC2(C)C [12j, (1R,4R,5R)-2,2,6-trimethyl-4-(5-nitrofuran-2-yl)-3-oxabicyclo[3.3.1]non-6-ene]",activity against TDP1 (in words),[1],did not exhibit high activity
same,IC50,[1],28 ± 10 µM
"CC1=CC[C@@H]2C[C@H]1[C@H](c1ccsc1)OC2(C)C [12k, (1R,4R,5R)-2,2,6-trimethyl-4-(thiophen-3-yl)-3-oxabicyclo[3.3.1]non-6-ene]",intrinsic cytotoxicity,[2],low
same,IC50,[1],1.2 ± 0.14 µM
same,effect of TDP1 inhibitor in conjunction with Tpc on cell growth,[3],not found; also recorded: no effect
same,intrinsic cytotoxicity,[4],low
same,enhancement of the Tpc cytotoxicity,[4],no enhancement
same,effect of TDP1 inhibitor in conjunction with Tpc on cell growth,[5],cell growth suppression; also recorded: synergistic effect; also recorded: Suppressed cell growth
same,intrinsic cytotoxicity,[6]; IMR-32,low
same,dose-dependent action of Tpc in the presence of inhibitor,[6],synergistic action
same,dose-dependent action of inhibitor in the presence of Tpc on cell growth,[6],suppressed cell growth
same,intrinsic cytotoxicity,[7],low
same,dose-dependent action of inhibitor in the presence of Tpc on cell growth,[7],no effect
"CC[C@@]1(O)C(=O)OCc2c1cc1n(c2=O)Cc2cc3c(CN(C)C)c(O)ccc3nc2-1 [Tpc, topotecan, reference compound]",IC50,[3]; in DMSO,0.03 µM
same,IC50,[3]; in H2O,0.15 µM
same,IC50,[5]; in DMSO,0.2 µM
same,IC50,[5]; in H2O,0.25 µM
same,IC50,[8]; [12],0.02 µM
same,"decrease of the slope (velocity of cell growth), 0 vs 0.05 μM Tpc",[8]; ~70 h after Tpc treatment,~ 6 times
same,IC50,"[6]; Homo sapiens, IMR-32, read-out: Tpc IC50 (concentration close to IC50)",~0.008 µM
same,IC50,"[7]; Homo sapiens, HCT-116, read-out: Tpc IC50 (concentration close to IC50)",~0.9 µM
same,IC50,[9]; [12],0.06 µM
same,"decrease of the slope (velocity of cell growth), 0 vs 0.05 μM Tpc",[9]; ~70 h after Tpc treatment,~ 1.5 times
CC(=O)C[C@H]1CC2C(CCC3C[C@H](OC(C)=O)CC[C@@]32C)C2CC[C@H]([C@H](C)CCC(=O)NC34CC5CC(CC(C5)C3)C4)[C@]21C (some centres unmarked) [compound 2],IC50,[10],0.47 µM
C[C@@H]1CC[C@@H]2[C@@H](C1)O[C@@H](c1ccc(NC(=O)C34CC5CC(CC(C5)C3)C4)s1)C[C@]2(C)O [compound 3],IC50,[10],1.2 µM
CC(C)CCCC(C)CCOC(=O)C12CC3CC(CC(C3)C1)C2 (centres unmarked) [compound 6],synergism in combination with Tpc,[11],strong synergism
same,IC50,[10],0.92 µM
CC(C)CCCC(C)CCNC(=S)C12CC3CC(CC(C3)C1)C2 (centres unmarked) [compound 7],synergism in combination with Tpc,[11],strong synergism
same,IC50,[10],3.3 µM
